From ChEMBL document CHEMBL1201862, “PubChem BioAssay data set” (2004)
Active and inactive are the calls of the source.

Tests used:
[1] = target: Intestinal-type alkaline phosphatase (Homo sapiens, UniProt P09923); assay: Dose Response confirmation of uHTS hits from a small molecule inhibitors of human intestinal alkaline phosphatase via a luminescent assay. [Related pubchem assays (depositor defined):AID2544, AID2574]; type: functional
[2] = target: Trypsin (Sus scrofa, UniProt P00761); assay: porcine trypsin inhibitors, dose response, selectivity assay for Rce1 protease inhibitor project, biochemical, quenched peptide fluorescence, cherry-pick (AID 488789)
[3] = target: CAAX prenyl protease 2 (Homo sapiens, UniProt Q9Y256); assay: human Rce1 protease inhibitors, dose response, biochemical, yeast membranes, quenched-peptide fluorescence, cherry-pick (AID 588849)
[4] = target: Hexokinase (Trypanosoma brucei, UniProt Q38C41); assay: Confirmation assay for inhibitors of Trypanosoma brucei hexokinase 1-Analogue-first series. [Related pubchem assays (depositor defined):AID1430, AID1632, AID2516, AID2560, AID2579, AID2600, AID449725, AID492951]; type: functional
[5] = target: T1, Coagulation factor XII (Homo sapiens, UniProt P00748); assay: Factor XIIa Dose Response Confirmation from Single Well HTS. [Related pubchem assays (depositor defined):AID701]; type: functional
T1 sequence (P00748 whole entry): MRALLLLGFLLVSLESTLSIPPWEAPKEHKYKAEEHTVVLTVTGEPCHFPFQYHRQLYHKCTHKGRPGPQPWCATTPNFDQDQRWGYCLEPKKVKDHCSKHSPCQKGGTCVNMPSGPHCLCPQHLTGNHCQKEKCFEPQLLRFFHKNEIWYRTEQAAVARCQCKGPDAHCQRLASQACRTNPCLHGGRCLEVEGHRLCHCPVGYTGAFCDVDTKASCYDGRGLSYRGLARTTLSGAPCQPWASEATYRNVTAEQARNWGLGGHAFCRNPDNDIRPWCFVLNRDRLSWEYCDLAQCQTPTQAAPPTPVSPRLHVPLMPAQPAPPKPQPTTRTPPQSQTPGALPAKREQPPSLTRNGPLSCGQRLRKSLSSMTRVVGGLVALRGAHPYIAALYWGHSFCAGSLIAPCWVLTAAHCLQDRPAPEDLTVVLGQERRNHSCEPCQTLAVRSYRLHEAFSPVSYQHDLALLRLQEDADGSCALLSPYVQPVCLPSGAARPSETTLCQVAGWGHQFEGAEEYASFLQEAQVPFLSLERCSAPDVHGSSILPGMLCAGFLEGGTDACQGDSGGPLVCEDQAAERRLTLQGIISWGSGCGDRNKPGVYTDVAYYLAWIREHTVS

[6] = target: CAAX prenyl protease 2 (Saccharomyces cerevisiae S288c, UniProt Q03530); type: biochemical
[7] = target: Mu-type opioid receptor (Homo sapiens, UniProt P35372); assay: SAR Analysis of Antagonists of the MOR Receptor using an Image-Based Assay - Set 3. [Related pubchem assays (depositor defined):AID1777, AID1785, AID1786, AID1966, AID2133, AID2136, AID2284, AID2285, AID2420]; type: functional
[8] = target: Delta-type opioid receptor (Homo sapiens, UniProt P41143); assay: SAR Analysis of Antagonists of the DOR Receptor using an Image-Based Assay - Set 3. [Related pubchem assays (depositor defined):AID1777, AID1785]; type: functional;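 note: U2OS cells expressing DOR1 and beta-arrestin GFP stimulated with 100 nM SNC80; imaging of GFP-tagged beta-arrestin moving into spots after receptor activation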
[9] = target: T2, Kappa-type opioid receptor (Homo sapiens, UniProt P41145); assay: SAR analysis of small molecule antagonists of the kappa opioid receptor via a luminescent beta-arrestin assay - Set 3. [Related pubchem assays (depositor defined):AID1777, AID1778, AID1785, AID1786, AID1966, AID2133, AID2136, AID2285, AID2495]; type: functional
[10] = target: T2, Kappa-type opioid receptor; assay: SAR analysis of Antagonists of the Kappa Opioid Receptor (KOR) using an Image-Based Assay - Set 3. [Related pubchem assays (depositor defined):AID1777, AID1785]; type: functional

T2 sequence (P41145 whole entry): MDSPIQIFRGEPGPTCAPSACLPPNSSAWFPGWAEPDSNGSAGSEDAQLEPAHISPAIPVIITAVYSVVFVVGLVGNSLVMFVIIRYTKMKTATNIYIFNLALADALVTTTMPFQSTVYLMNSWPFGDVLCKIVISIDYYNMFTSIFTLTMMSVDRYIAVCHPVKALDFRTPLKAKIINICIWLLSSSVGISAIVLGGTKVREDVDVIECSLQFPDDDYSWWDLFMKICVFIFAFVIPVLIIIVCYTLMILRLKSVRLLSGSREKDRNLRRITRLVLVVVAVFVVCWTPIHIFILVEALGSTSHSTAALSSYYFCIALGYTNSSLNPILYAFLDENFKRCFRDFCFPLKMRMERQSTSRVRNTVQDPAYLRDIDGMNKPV
Chain of Trypsin (P00761 whole entry): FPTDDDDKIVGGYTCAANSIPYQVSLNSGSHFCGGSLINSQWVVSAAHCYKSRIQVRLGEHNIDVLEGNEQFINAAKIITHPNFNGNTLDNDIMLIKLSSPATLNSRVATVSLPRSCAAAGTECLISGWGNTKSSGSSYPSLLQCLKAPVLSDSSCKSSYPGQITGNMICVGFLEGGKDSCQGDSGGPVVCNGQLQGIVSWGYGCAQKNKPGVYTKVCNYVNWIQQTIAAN
Chain of Delta-type opioid receptor (P41143 whole entry): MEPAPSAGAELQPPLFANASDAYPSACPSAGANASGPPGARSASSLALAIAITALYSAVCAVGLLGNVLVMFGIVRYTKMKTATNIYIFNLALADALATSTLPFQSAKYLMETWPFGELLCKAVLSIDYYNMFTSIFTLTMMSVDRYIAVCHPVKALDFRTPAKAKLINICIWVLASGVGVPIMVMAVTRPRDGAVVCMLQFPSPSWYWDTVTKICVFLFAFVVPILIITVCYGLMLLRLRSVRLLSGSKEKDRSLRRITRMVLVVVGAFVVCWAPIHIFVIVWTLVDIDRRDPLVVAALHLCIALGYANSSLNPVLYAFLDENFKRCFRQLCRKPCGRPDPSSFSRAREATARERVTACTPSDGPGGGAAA
Chain of Intestinal-type alkaline phosphatase (P09923 whole entry): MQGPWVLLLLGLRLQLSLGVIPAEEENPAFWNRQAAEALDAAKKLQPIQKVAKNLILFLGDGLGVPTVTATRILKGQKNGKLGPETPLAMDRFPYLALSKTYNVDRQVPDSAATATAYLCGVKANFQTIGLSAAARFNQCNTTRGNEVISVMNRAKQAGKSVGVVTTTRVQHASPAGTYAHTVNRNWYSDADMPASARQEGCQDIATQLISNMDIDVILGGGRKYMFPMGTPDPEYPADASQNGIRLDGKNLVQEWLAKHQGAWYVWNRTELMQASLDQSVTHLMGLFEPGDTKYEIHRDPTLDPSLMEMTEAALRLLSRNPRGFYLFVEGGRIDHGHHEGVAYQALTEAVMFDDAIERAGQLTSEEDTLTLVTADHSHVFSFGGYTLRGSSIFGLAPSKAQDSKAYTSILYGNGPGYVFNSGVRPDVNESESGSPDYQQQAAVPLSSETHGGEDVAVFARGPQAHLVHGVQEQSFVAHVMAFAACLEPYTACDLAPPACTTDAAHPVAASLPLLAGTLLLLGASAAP
Chain of CAAX prenyl protease 2 (Homo sapiens, UniProt Q9Y256) (Q9Y256 whole entry): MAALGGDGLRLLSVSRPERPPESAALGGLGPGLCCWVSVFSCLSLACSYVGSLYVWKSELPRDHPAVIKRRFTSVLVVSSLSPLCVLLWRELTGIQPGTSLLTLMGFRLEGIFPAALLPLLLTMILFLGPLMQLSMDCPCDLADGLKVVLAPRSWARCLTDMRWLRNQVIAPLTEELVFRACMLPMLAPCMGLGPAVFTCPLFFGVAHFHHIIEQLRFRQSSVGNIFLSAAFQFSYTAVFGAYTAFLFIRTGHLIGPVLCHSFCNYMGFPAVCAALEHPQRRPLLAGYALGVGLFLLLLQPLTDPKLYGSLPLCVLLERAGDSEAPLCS
Chain of Hexokinase (Q38C41 whole entry): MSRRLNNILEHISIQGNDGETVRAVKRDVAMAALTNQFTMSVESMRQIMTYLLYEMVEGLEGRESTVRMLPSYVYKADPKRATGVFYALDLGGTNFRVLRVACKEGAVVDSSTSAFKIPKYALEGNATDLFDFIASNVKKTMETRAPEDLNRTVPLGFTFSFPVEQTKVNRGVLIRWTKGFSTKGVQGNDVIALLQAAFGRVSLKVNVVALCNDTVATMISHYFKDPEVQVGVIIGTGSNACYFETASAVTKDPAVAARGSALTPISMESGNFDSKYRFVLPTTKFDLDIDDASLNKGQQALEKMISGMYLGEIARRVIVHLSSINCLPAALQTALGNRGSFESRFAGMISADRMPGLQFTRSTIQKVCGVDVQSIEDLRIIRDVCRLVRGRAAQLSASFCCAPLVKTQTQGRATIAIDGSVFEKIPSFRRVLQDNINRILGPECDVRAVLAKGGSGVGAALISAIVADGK
Chain of CAAX prenyl protease 2 (Saccharomyces cerevisiae S288c, UniProt Q03530) (Q03530 whole entry): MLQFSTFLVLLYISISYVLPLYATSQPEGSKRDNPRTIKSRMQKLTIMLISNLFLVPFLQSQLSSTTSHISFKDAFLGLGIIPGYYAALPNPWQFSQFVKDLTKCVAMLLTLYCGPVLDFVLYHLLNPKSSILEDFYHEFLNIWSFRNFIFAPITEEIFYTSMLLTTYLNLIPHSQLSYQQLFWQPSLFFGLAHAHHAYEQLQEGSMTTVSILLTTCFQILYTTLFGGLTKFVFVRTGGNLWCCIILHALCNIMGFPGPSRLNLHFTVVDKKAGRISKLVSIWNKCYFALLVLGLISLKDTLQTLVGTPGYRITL
Chain of Mu-type opioid receptor (P35372 whole entry): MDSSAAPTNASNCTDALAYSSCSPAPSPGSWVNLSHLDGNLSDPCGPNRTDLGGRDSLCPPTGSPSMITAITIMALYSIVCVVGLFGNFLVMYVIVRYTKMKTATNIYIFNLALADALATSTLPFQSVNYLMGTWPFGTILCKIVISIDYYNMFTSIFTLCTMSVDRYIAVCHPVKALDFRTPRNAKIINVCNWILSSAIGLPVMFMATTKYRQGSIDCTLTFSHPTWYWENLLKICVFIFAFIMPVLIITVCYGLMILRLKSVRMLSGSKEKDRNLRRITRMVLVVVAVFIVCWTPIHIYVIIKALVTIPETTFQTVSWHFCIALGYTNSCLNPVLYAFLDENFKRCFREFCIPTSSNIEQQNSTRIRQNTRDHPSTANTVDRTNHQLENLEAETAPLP

Q: `Cc1cccc(SCc2noc(C(=O)NCC3CCCO3)c2C(=O)O)c1` (stereo not given) was tested. Which IC50 [1] did it give?
A: > 100 µM (inactive)

Q: Which results are given for `Cc1csc(NC(=O)c2ccccc2O)n1`?
A: AC50 [2]: > 100 µM (inactive); AC50 [3]: 19.3 µM (active)

Q: With `O=C(Nc1ccccc1)c1cc(F)ccc1S` as the compound, how does the IC50 [4] read?
A: > 25 µM (inactive)

Q: For `O=C(Oc1nsnc1N1CCOCC1)c1ccccc1`, which IC50 [5] is on record?
A: 4.38 µM (active)

Q: How did the AC50 [6] turn out when `CS(=O)(=O)Nc1ccccc1C(=O)NC1CC2CCC1C2` (stereo not given) was run?
A: 3.03 µM (active)

Q: How did the IC50 [7] turn out when `CCc1ccc(S(=O)(=O)NCc2ccc(C(=O)NCCN(Cc3ccc(OC)cc3)C(C)C)cc2)cc1` was run?
A: > 32 µM (inactive)

Q: What about the IC50 [8] of the same compound?
A: > 32 µM (inactive)

Q: What about the IC50 [9] of the same compound?
A: 0.873 µM (active)

Q: And the IC50 [10]?
A: 0.264 µM (active)
